The results in this text go back to ChEMBL document CHEMBL4808251, “Preparation, biological & cheminformatics-based assessment of N2,N4-diphenylpyrimidine-2,4-diamine as potential Kinase-targeted antimalarials” (Bioorg Med Chem, 2021).

A short description of data set [1]: Cytotoxicity against human HepG2 cells assessed as inhibition of cell viability relative to control. It is filed as cell-based. Particulars: read-out: INH.
A further data set concerns Plasmodium falciparum. Kind of data set: Antimalarial activity against chloroquine-sensitive plasmodium falciparum 3D7 infected in human erythrocytes assessed as parasite growth inhibition measured after 72 hrs by SYBR green dye based fluorescence analysis. It is filed as functional, organism-based. Particulars: 3D7, Erythrocyte.
Data set [2] is described as follows: Selectivity index, ratio of IC50 for cytotoxicity against human HepG2 cells to IC50 for antimalarial activity against chloroquine-sensitive plasmodium falciparum 3D7 infected in human erythrocytes. It is filed as toxicity, cell-based. Conditions: read-out: Ratio IC50.
A short description of data set [3]: Aqueous solubility of compound in PBS at pH 7.4 by HPLC-UV analysis. Format: physicochemical.
The subject of a further data set is HepG2. Kind of data set: Cytotoxicity against human HepG2 cells assessed as inhibition of cell growth measured after 72 hrs by resazurin dye based fluorescence assay. Conditions: HepG2, 72 h. A general note: Resazurin is reduced to fluorescent resorufin, in cell work by metabolically active cells.
Data set [4] deals with HER4 (Receptor tyrosine-protein kinase erbB-4) (Homo sapiens, UniProt Q15303). Briefly: Inhibition of human HER4 at 1 uM measured after 30 mins by [gamma-33P]-ATP assay.
Chain of HER4 (Receptor tyrosine-protein kinase erbB-4) (Q15303 whole entry): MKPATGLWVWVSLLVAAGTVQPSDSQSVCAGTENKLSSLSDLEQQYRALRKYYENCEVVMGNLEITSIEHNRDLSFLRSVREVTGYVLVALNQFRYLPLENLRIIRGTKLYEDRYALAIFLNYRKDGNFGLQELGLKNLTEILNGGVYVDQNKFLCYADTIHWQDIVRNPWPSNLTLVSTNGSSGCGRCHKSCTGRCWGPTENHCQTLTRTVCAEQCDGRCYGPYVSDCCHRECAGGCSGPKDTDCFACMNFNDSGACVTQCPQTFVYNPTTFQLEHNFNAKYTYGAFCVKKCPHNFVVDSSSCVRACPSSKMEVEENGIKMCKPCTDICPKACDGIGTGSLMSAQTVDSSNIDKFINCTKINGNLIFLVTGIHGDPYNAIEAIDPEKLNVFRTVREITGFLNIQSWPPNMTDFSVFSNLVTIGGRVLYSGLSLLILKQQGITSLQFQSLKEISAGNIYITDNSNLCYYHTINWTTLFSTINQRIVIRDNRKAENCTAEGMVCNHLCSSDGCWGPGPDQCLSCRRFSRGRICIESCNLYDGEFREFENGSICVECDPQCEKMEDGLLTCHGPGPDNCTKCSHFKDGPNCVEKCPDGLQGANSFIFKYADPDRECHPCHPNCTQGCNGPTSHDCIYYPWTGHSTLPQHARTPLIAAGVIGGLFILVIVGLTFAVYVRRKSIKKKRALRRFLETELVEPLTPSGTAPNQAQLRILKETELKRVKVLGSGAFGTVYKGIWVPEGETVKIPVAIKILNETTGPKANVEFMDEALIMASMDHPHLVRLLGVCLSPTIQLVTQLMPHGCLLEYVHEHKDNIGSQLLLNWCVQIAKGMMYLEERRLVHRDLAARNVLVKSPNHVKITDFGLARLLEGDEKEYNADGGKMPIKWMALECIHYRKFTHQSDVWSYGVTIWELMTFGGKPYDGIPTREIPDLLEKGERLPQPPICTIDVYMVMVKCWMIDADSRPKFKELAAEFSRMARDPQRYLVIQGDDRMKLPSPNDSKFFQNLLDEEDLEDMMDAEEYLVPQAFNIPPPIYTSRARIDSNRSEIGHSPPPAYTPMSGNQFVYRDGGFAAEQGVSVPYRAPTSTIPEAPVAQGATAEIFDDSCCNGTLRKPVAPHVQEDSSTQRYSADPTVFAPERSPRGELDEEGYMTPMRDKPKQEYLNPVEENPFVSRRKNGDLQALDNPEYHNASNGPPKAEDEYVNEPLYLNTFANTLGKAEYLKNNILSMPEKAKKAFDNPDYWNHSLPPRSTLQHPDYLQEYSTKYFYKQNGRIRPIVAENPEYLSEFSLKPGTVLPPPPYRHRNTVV
Data set [5] can be described thus: Effective permeability of the compound in PBS at pH 7.4 at 10 uM incubated for 5 hrs by PAMPA based UPLC-MS/MS analysis. It is filed as ADME. Conditions: read-out: permeability. Background: In PAMPA a lipid-coated filter parts donor from acceptor wells.
Data set [6] concerns the target JNK1 (Mitogen-activated protein kinase 8) (Homo sapiens, UniProt P45983). Briefly: Inhibition of human JNK1 at 1 uM measured after 30 mins by [gamma-33P]-ATP assay.
In data set [7] the target is T1, JAK3 (Tyrosine-protein kinase JAK3) (Homo sapiens, UniProt P52333).
T1 sequence (P52333 whole entry): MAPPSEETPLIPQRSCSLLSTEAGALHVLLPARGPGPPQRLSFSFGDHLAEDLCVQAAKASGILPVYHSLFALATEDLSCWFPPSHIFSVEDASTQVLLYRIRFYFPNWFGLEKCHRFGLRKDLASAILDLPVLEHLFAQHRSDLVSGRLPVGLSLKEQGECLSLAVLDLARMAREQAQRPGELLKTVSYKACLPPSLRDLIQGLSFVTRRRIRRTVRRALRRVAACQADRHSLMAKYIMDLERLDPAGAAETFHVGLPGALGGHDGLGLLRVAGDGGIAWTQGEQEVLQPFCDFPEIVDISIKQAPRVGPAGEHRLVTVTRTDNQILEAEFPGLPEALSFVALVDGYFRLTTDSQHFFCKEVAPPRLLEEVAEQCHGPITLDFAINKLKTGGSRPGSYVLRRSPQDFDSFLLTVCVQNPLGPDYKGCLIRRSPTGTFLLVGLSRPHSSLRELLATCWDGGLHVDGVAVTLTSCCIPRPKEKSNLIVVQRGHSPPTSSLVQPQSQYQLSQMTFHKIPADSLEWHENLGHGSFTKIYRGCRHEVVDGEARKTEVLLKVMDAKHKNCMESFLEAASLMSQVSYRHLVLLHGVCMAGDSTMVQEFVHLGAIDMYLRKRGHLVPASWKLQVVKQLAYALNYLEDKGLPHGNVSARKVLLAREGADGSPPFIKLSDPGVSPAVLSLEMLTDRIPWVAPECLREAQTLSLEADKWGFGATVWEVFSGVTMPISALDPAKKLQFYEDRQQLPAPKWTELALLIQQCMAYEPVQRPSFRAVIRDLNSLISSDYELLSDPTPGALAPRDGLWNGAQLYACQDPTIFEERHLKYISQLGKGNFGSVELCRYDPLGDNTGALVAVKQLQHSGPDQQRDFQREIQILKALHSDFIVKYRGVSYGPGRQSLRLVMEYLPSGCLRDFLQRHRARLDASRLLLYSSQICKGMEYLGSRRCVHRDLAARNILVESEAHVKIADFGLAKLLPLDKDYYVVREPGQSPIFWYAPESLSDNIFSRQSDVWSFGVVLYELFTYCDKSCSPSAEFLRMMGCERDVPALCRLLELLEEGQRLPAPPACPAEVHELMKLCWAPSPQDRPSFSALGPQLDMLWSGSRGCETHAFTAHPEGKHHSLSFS
Briefly: Inhibition of human JAK3 at 1 uM measured after 30 mins by [gamma-33P]-ATP assay.

The target in the next data set is T2, Aurora kinase A (Homo sapiens, UniProt O14965).
T2 sequence (O14965 whole entry): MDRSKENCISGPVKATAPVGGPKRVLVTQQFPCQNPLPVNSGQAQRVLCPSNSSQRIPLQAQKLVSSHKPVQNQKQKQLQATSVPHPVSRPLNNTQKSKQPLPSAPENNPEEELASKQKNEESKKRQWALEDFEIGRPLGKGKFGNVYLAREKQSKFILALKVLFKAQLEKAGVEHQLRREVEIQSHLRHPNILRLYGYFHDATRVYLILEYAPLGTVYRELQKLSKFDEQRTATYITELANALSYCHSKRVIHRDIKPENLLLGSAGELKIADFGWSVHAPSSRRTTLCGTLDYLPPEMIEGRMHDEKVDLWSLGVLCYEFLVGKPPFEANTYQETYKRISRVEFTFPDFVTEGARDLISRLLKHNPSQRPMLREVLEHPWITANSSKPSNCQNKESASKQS
Kind of data set: Inhibition of human Aurora A at 1 uM measured after 30 mins by [gamma-33P]-ATP assay.

The target of data set [8] is ERK1 (Mitogen-activated protein kinase 3) (Homo sapiens, UniProt P27361). Briefly: Inhibition of human ERK1 at 1 uM measured after 30 mins by [gamma-33P]-ATP assay.
For data set [9], the target named is VEGFR1 (Vascular endothelial growth factor receptor 1) (Homo sapiens, UniProt P17948). Briefly: Inhibition of human VEGFR1 at 1 uM measured after 30 mins by [gamma-33P]-ATP assay. Conditions: human VEGFR1 kinase.
Chain of VEGFR1 (Vascular endothelial growth factor receptor 1) (P17948 whole entry): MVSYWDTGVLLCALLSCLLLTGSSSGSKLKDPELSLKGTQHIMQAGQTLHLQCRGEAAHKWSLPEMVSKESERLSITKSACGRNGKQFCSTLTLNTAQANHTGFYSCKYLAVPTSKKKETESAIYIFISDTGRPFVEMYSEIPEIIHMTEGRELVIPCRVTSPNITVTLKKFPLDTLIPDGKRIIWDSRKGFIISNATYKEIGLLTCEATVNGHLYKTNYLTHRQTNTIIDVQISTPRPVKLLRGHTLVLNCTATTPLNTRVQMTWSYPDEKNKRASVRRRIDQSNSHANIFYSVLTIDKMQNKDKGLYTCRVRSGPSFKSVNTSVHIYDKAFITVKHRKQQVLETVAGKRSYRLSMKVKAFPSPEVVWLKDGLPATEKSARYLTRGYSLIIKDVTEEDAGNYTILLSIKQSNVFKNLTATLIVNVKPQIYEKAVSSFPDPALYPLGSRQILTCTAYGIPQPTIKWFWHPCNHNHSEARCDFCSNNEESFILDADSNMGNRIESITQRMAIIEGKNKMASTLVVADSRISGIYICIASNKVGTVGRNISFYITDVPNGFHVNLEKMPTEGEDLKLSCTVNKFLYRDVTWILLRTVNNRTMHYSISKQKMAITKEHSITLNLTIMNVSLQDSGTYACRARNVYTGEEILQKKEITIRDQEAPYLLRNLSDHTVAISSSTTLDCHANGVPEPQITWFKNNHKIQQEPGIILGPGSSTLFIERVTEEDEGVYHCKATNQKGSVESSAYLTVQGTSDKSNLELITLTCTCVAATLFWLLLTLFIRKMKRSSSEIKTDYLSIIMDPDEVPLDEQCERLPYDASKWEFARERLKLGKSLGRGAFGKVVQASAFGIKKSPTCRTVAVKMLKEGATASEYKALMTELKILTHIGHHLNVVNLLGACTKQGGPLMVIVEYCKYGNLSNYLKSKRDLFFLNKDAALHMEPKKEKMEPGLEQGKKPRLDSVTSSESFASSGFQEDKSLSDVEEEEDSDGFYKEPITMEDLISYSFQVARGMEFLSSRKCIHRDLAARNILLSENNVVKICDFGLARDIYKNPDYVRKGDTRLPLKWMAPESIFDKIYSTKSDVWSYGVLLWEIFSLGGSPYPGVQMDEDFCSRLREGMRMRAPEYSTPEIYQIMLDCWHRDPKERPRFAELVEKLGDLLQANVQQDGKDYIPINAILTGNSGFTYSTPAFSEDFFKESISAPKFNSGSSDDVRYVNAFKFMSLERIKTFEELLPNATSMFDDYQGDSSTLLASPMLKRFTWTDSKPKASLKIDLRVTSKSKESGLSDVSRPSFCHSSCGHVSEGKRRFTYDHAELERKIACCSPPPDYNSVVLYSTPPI
A short description of data set [10]: Intrinsic clearance in human liver microsomes at 0.5 uM in the presence of NADPH measured upto 30 mins by UPLC-MS/MS analysis. Format: ADME, Microsome. Particulars: 0.5 h. In general terms: Liver microsomes are vesicles of endoplasmic reticulum, rich in cytochrome P450 enzymes.
In data set [11] the target is PIM1 (Serine/threonine-protein kinase pim-1) (Homo sapiens, UniProt P11309). Kind of data set: Inhibition of human PIM1 at 1 uM measured after 30 mins by [gamma-33P]-ATP assay.
Chain of PIM1 (Serine/threonine-protein kinase pim-1) (P11309 whole entry): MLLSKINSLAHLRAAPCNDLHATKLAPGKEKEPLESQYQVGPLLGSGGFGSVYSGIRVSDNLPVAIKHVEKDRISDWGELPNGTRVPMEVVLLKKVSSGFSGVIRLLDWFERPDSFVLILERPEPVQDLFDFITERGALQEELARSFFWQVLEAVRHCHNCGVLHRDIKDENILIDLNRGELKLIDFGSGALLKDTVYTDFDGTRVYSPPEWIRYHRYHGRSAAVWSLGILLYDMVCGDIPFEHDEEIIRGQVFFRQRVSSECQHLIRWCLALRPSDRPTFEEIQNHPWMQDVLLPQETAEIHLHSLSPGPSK
Data set [12] deals with MEKK1 (Mitogen-activated protein kinase kinase kinase 1) (Homo sapiens, UniProt Q13233). Kind of data set: Inhibition of human MEKK1 at 1 uM measured after 30 mins by [gamma-33P]-ATP assay.
Chain of MEKK1 (Mitogen-activated protein kinase kinase kinase 1) (Q13233 whole entry): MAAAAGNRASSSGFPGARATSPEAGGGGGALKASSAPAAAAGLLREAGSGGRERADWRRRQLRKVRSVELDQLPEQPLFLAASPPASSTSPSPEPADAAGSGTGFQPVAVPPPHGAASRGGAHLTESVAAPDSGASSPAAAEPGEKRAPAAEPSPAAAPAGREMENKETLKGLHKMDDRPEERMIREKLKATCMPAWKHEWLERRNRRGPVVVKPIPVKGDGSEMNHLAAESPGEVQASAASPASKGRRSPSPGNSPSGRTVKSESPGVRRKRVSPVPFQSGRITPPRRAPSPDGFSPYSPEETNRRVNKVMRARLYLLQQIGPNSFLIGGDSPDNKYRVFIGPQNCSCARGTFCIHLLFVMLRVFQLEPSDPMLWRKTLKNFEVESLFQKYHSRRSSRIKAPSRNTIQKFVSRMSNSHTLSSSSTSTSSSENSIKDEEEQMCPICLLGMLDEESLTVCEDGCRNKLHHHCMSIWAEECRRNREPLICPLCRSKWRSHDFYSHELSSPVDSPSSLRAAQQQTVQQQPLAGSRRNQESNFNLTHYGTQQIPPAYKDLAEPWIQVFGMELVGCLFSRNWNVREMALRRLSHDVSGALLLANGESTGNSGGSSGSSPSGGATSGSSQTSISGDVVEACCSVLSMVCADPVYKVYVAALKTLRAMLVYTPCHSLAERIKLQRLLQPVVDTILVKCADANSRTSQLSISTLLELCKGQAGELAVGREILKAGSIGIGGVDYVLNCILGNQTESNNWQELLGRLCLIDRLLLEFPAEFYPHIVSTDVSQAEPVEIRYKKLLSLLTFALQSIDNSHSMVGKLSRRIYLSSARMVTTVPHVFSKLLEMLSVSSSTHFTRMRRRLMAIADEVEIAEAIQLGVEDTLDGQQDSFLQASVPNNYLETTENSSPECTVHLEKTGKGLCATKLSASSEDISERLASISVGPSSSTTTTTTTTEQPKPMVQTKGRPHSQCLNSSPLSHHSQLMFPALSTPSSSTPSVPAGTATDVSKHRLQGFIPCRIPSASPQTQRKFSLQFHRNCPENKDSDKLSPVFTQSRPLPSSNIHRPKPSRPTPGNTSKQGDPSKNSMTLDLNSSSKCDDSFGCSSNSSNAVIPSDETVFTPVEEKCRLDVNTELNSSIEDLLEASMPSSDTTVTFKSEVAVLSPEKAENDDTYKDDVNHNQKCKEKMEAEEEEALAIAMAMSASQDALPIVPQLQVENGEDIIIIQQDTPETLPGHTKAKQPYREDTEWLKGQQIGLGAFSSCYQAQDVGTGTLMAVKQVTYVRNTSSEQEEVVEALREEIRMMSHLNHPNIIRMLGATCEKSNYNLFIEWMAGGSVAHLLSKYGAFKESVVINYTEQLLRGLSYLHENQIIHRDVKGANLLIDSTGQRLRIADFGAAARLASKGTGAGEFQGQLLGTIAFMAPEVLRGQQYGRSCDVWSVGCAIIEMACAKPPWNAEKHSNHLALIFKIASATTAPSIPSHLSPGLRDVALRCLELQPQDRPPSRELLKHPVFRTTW
Data set [13] in a line: 1-octanol/water partition coefficient, logD of the compound at pH 7.4 measured after 6 hrs by shake flask technique based HPLC-UV analysis. Format: physicochemical.
In data set [14] the target is CDK2 (Cyclin-dependent kinase 2) (Homo sapiens, UniProt P24941). Briefly: Inhibition of human CDK2 at 1 uM measured after 30 mins by [gamma-33P]-ATP assay.

The structures appear in SMILES notation. pIC50: −log10 of the molar value. Converted amounts (≈) assume the structure as drawn.

Chain of JNK1 (Mitogen-activated protein kinase 8) (P45983 whole entry): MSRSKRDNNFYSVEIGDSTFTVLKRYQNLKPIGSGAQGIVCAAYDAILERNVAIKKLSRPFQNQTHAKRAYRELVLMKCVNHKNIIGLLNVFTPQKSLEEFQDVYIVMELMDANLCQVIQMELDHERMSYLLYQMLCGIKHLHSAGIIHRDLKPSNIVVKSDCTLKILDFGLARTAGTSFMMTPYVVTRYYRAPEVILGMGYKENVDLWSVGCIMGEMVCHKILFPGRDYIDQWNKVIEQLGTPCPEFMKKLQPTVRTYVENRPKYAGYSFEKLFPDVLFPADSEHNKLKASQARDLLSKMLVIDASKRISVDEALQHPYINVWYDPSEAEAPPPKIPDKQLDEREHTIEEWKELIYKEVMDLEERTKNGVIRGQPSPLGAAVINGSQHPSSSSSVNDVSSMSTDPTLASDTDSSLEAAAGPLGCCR

As a reminder, the pIC50 is the negative decadic logarithm of the IC50, by convention in mol/L. As to `CC(=O)c1ccc(NC(=O)Nc2ccc(N(C)c3ccnc(Nc4cccc(CS(C)(=O)=O)c4)n3)cc2)cc1`, in [1], the cytotoxicity stood at 86%. For the same compound, in the data set on Plasmodium falciparum, the pIC50 is 6.92.

As a reminder, the solubility is the concentration that dissolves in the medium under given conditions. Higher therefore signals much dissolved substance. By inhibition is commonly meant the drop in the measured response relative to a control, in per cent. As usually defined, the logD is the decadic logarithm of the distribution of all forms, ionised or not, between an organic phase and buffer at a given pH. Low readings indicate a more hydrophilic compound, high ones a more lipophilic compound. On to `Cc1cc(Nc2nccc(Nc3ccc4nc[nH]c4c3)n2)ccc1N1CCN(C)CC1`, for which the selectivity ratio in [2] is 36. This compound also had a solubility in data set [3] of 16 µM (≈ 6.63 µg/mL). The pIC50 in the data set on HepG2 was 4.82; in the data set on Plasmodium falciparum it was 6.38. Further, the inhibition at 0.5 h, 1 µM came to 35.4% in data set [4]; 63.5% in [6]; 57.8% in [7]; 15.7% on Aurora kinase A; 71% in data set [8]; 2.9% in data set [9]. The inhibition at 0.5 h, 1 µM is 108% in data set [11], 44.4% in data set [12] and 57.3% in data set [14]. In addition, the Papp at 5 h, 10 µM in data set [5] amounted to 0.02 ×10⁻⁶ cm/s. For the same compound, the CLH in [10] is 1.8 mL/min/g. The same compound had a logD at 6 h in data set [13] of 2.9.

As to `Cc1cccc(Nc2ncc([N+](=O)[O-])c(Nc3ccc4nc[nH]c4c3)n2)c1`, the selectivity ratio in [2] is 28. In [3], this compound showed a solubility of 1 µM (≈ 0.361 µg/mL). The pIC50 was 4.66 in the data set with HepG2 and 6.11 in the data set with Plasmodium falciparum. For the same compound, the inhibition at 0.5 h, 1 µM in data set [4] turned out to be 83.8%; in data set [6], 91%; in [7], 54.9%; at Aurora kinase A, 15.6%; in data set [8] it was 69.8%; in data set [9], 27.9%. For the same compound, the results for the inhibition at 0.5 h, 1 µM in [11], in data set [12] and in data set [14] were 76.7%, 43.2% and 25.3%, respectively. The Papp at 5 h, 10 µM in data set [5] is 3.8 ×10⁻⁶ cm/s. Further, the CLH in data set [10] is 19 mL/min/g. Also, in data set [13], the logD at 6 h is 3.2.

In the case of `CN1CCN(c2ccc(Nc3ncc(C#N)c(Nc4ccccc4C(N)=O)n3)cc2)CC1`, the cytotoxicity in data set [1] came to 43%. Also, the negative logarithm of the IC50 (pIC50) with Plasmodium falciparum was 7.40.
